In ChEMBL document CHEMBL1201862, “PubChem BioAssay data set” (2004):
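Each compound was tested at five concentrations against cells in 96-well plates for 48 hours. Abbreviation: GI50, concentration required for 50% inhibition of growth.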 Activity calls are given as the source filed them. Rule as the data show it: active = GI50 up to about 1.1 µM and inactive = higher.

Columns and labels:
Experiment in all cases: NCI tumour cell line growth inhibition, 48 h
[1] = test system: OVCAR-3
[2] = test system: UACC-62
[3] = test system: UACC-257
[4] = test system: SN12C
[5] = test system: DMS-273
[6] = test system: MDA-MB-435
[7] = test system: SK-MEL-5
[8] = test system: HOP-62
[9] = test system: SF-268
[10] = test system: CCRF-CEM
[11] = test system: SK-OV-3
[12] = test system: HCT-15
[13] = test system: EKVX
[14] = test system: OVCAR-4
[15] = test system: SK-MEL-2
[16] = test system: NCI/ADR-RES
[17] = test system: DU-145
[18] = test system: HCC 2998
[19] = test system: 786-0
[20] = test system: CAKI-1

Row | Structure (SMILES) | GI50 [1] | GI50 [2] | GI50 [3] | GI50 [4] | GI50 [5] | GI50 [6] | GI50 [7] | GI50 [8] | GI50 [9] | GI50 [10] | GI50 [11] | GI50 [12] [µM] | GI50 [13] | GI50 [14] | GI50 [15] | GI50 [16] | GI50 [17] | GI50 [18] | GI50 [19] | GI50 [20]
1 | COC(=O)NC1C(C)OC(OC2C/C=C(/C)C3C=CC4C(OC5CC(OC6CC(O)C(OC7CC(O)C(OC)C(C)O7)C(C)O6)C(O)C(C)O5)C(C)CC(C)C4C3(C)C(=O)C3=C(O)C4(CC(C)C(CO)=CC4/C=C\2C)OC3=O)CC1(C)[N+](=O)[O-] (centres undefined) | 6.84 µM (inactive) | 6.37 µM (inactive) | 13.9 µM (inactive) | 12.9 µM (inactive) | 11.4 µM (inactive) | 8.75 µM (inactive) | 15.6 µM (inactive) | 15.4 µM (inactive) | 14.8 µM (inactive) | 2.79 µM (inactive) | 12 µM (inactive) | 18 | 5.26 µM (inactive) | 3.48 µM (inactive) | 11.4 µM (inactive) | 69.5 µM (inactive) | 11.6 µM (inactive) | 16.6 µM (inactive) | 9.93 µM (inactive) | 19.4 µM (inactive)
2 | C/C(=C1/N=C(c2cc([N+](=O)[O-])ccc2Cl)N(c2ccc(Br)cc2)C1=O)c1ccc(N(CCC#N)CCC#N)cc1C | 24.5 µM (inactive) | 3.61 µM (inactive) | 57.5 µM (inactive) | 40.4 µM (inactive) | 7.23 µM (inactive) |  | 13.7 µM (inactive) | 19.8 µM (inactive) | 61.7 µM (inactive) | 12.3 µM (inactive) | > 100 µM (inactive) | 16.4 | > 100 µM (inactive) | 38.8 µM (inactive) | 21.8 µM (inactive) |  |  | 32.1 µM (inactive) | 29.6 µM (inactive) | 52.4 µM (inactive)
3 | N#Cc1c(-c2ccc(Cl)c(Cl)c2)c(-c2ccc(Cl)c(Cl)c2)nn(CC(=O)O)c1=O | 27.2 µM (inactive) | > 100 µM (inactive) | 66.2 µM (inactive) | 51.3 µM (inactive) | 44.7 µM (inactive) |  | 34.7 µM (inactive) | > 100 µM (inactive) |  | 48.2 µM (inactive) | > 100 µM (inactive) | 28.2 | > 100 µM (inactive) | > 100 µM (inactive) | > 100 µM (inactive) |  |  | 52.2 µM (inactive) | > 100 µM (inactive) | 38.5 µM (inactive)
4 | Nc1nc(N)c2cc(CNc3ccc(C(=O)NC(CC(=O)O)C(=O)O)c(Cl)c3)ccc2n1 (centres undefined) | 0.8 µM (active) | 0.0893 µM (active) | 0.259 µM (active) | 0.278 µM (active) | 0.0552 µM (active) | < 0.01 µM (active) | 0.162 µM (active) |  | 0.0582 µM (active) | 0.0342 µM (active) | 6.82 µM (inactive) | 0.0203 |  | 153 µM (inactive) | 15 µM (inactive) | < 0.0282 µM (active) | 0.0501 µM (active) | 1.43 µM (inactive) | 0.0736 µM (active) | 0.0877 µM (active)
5 | N#C/C(=C\c1c(O)cc(O)cc1O)C(N)=O | > 100 µM (inactive) |  | > 100 µM (inactive) | > 100 µM (inactive) | > 100 µM (inactive) |  | > 100 µM (inactive) | > 100 µM (inactive) | > 100 µM (inactive) | > 100 µM (inactive) | > 100 µM (inactive) | > 100 | > 100 µM (inactive) | > 100 µM (inactive) | > 100 µM (inactive) |  |  | > 100 µM (inactive) | > 100 µM (inactive) | > 100 µM (inactive)
6 | O/N=C1/C(=C/c2ccc(Cl)c(Cl)c2)CCCC1C(NO)c1ccc(Cl)c(Cl)c1 (centres undefined) | 14.7 µM (inactive) | 18 µM (inactive) | 18.7 µM (inactive) | 17.8 µM (inactive) | 18.8 µM (inactive) |  | 18.5 µM (inactive) | 20.1 µM (inactive) | 23.5 µM (inactive) | 17.2 µM (inactive) | 20.4 µM (inactive) | 16.8 | 21.9 µM (inactive) | 12.9 µM (inactive) | 17.4 µM (inactive) |  |  | 17.1 µM (inactive) | 19.5 µM (inactive) | 18.8 µM (inactive)
7 | O=C1CCC2(CC1)SCCCS2 | > 100 µM (inactive) | > 100 µM (inactive) | > 100 µM (inactive) | > 100 µM (inactive) | > 100 µM (inactive) |  | > 100 µM (inactive) | > 100 µM (inactive) | > 100 µM (inactive) | > 100 µM (inactive) | > 100 µM (inactive) | > 100 | > 100 µM (inactive) | > 100 µM (inactive) | > 100 µM (inactive) |  |  | > 100 µM (inactive) | > 100 µM (inactive) | > 100 µM (inactive)
8 | C/C(=N/N)c1ccc2[nH]c3c(C)cc([N+](=O)[O-])c(C)c3c2c1 | 14.9 µM (inactive) |  | 18.6 µM (inactive) | 3.95 µM (inactive) | 4.52 µM (inactive) |  | 5 µM (inactive) | 8.07 µM (inactive) | 8.22 µM (inactive) | 3.13 µM (inactive) |  | 9.55 | 22.2 µM (inactive) | 14.8 µM (inactive) | 11.3 µM (inactive) |  |  | 17.5 µM (inactive) | 4.6 µM (inactive) | > 10 µM (inactive)
9 | CCOC(=O)CSc1nnc(CSc2nc(-c3ccccc3)c(-c3ccccc3)[nH]2)n1-c1ccccc1 | > 100 µM (inactive) | 27.2 µM (inactive) | 29.3 µM (inactive) | 18.9 µM (inactive) | > 100 µM (inactive) |  | > 100 µM (inactive) | > 100 µM (inactive) | 26.1 µM (inactive) | > 54 µM (inactive) | 23.4 µM (inactive) | > 100 | > 100 µM (inactive) | 22.1 µM (inactive) | > 31.6 µM (inactive) | 61.9 µM (inactive) | 15.4 µM (inactive) | 19.5 µM (inactive) | 24.6 µM (inactive) | 
10 | O=NN(CCCl)C(=O)N[C@H]1CC[C@H](CC(=O)O)CC1 | > 100 µM (inactive) | 15.4 µM (inactive) | > 100 µM (inactive) | 66.8 µM (inactive) | > 100 µM (inactive) |  | > 100 µM (inactive) | > 94.6 µM (inactive) | 18.5 µM (inactive) | 21.1 µM (inactive) | > 100 µM (inactive) | > 100 | > 46.5 µM (inactive) | > 100 µM (inactive) | > 100 µM (inactive) | > 100 µM (inactive) |  | > 100 µM (inactive) | 44 µM (inactive) | > 100 µM (inactive)
11 | O=C(CC1(O)C(=O)Nc2c(Cl)cc(Cl)cc21)c1cccc([N+](=O)[O-])c1 (centres undefined) | 25 µM (inactive) | 18.8 µM (inactive) | 16 µM (inactive) | 24.7 µM (inactive) | 39.4 µM (inactive) | 5.12 µM (inactive) | 17.2 µM (inactive) | 50.6 µM (inactive) | 44.4 µM (inactive) | 17.4 µM (inactive) | 38.6 µM (inactive) | 48.5 | 52.5 µM (inactive) | 14.4 µM (inactive) | 34.3 µM (inactive) | 29 µM (inactive) | > 100 µM (inactive) | > 45.2 µM (inactive) | 22.2 µM (inactive) | 32.6 µM (inactive)
12 | Cc1cc(Cl)cc2c1NC(=O)C2(O)CC(=O)c1ccc(Br)cc1 (centres undefined) | 63 µM (inactive) | 21.6 µM (inactive) | 32.6 µM (inactive) | > 77.1 µM (inactive) | 47.8 µM (inactive) |  | 25 µM (inactive) | > 100 µM (inactive) | > 77.8 µM (inactive) | 18.6 µM (inactive) | > 100 µM (inactive) | 57 | 59.4 µM (inactive) | 14.2 µM (inactive) | > 100 µM (inactive) |  |  | > 100 µM (inactive) | 38.2 µM (inactive) | > 100 µM (inactive)
13 | Cc1c(Cl)c2ccccc2n1S(=O)(=O)c1ccccc1 | 45 µM (inactive) | 87.3 µM (inactive) | 53.1 µM (inactive) |  | 38.7 µM (inactive) |  | 32.4 µM (inactive) | 65.5 µM (inactive) | 64 µM (inactive) | 48.5 µM (inactive) |  | 37.3 |  | 36.7 µM (inactive) | 28.8 µM (inactive) |  |  | 33.6 µM (inactive) | 59.6 µM (inactive) | 58.7 µM (inactive)
14 | COc1cc2c(cc1OC(=O)CC(C)O)C1C(OC2=O)C(OC(C)=O)C=C2CCN(C)[C@H]21 (some centres undefined) | 38.4 µM (inactive) | 31.1 µM (inactive) | > 100 µM (inactive) | 38.6 µM (inactive) | 47.1 µM (inactive) |  | 38.1 µM (inactive) | 21.1 µM (inactive) | 46.3 µM (inactive) | > 100 µM (inactive) | 15.9 µM (inactive) |  | 65.8 µM (inactive) | 40.5 µM (inactive) | 15.9 µM (inactive) |  |  | 26.2 µM (inactive) | 17.9 µM (inactive) | 71.1 µM (inactive)
